Assay results from patent US8551984B2, “Aminopyrimidines as SYK inhibitors” (Merck Sharp & Dohme Corp., priority 2009, dated 2013).
Like-named read-outs stand apart in the source and are kept apart here.

Legend:
[1] = target: rhSYK (Homo sapiens, UniProt P43405); test: biochemical
[2] = target: recombinant human SYK (GST-hSYK fusion protein) (Homo sapiens, UniProt P43405)
Text: Homogeneous Time-Resolved Fluorescence (HTRF) Assay for the Recombinant Human SYK Enzyme:

SMILES | IC50 [1] | further results
Cc1cc(Nc2nccc(C(F)(F)F)n2)cc(-c2cnc(C3(O)CCC(C(=O)NCCc4ccccc4)CC3)s2)c1 (stereo not shown) [Example 119-70] | < 100 nM | –
CC(=O)NCCCCNC(=O)[C@H]1CC[C@](O)(c2ncc(-c3cc(C)cc(Nc4nccc(C(F)(F)F)n4)c3)s2)CC1 [Example 119-81] | < 100 nM | –
Cc1cc(Nc2nccc(C(F)(F)F)n2)cc(-c2cnc(C3(O)CCC(C(=O)N4CCCC(C#N)C4)CC3)s2)c1 (stereo not shown) [Example 119-60] | < 100 nM | –
Cc1cc(Nc2nccc(C(F)(F)F)n2)cc(-c2cnc([C@]3(O)CC[C@@H](C(=O)N4CCC(Cc5ccccc5)CC4)CC3)s2)c1 [Example 119-102] | 100 to 1000 nM | –
Cc1cc(Nc2nccc(C(C)(C)C)n2)cc(-c2cnc(C3(O)CCC(C(N)=O)C(C)(C)C3)s2)c1 (stereo not shown) [Example 119-125] | < 100 nM | –
Cc1cc(Nc2nccc(C(F)(F)F)n2)cc(-c2cnc([C@]3(O)CC[C@@H](C(=O)N4CCc5cc(O)c(O)cc5C4)CC3)s2)c1 [Example 119-138] | < 100 nM | –
Cc1cc(Nc2nccc(C(F)(F)F)n2)cc(-c2cnc(C3(O)CCC(C(=O)Nc4ccncc4)CC3)s2)c1 (stereo not shown) [Example 119-34] | < 100 nM | –
Cc1cc(Nc2nccc(C(F)(F)F)n2)cc(-c2cnc([C@]3(O)CC[C@@H](C(=O)Nc4ccc5[nH]ccc5c4)CC3)s2)c1 [Example 119-82] | < 100 nM | –
Cc1cc(Nc2nccc(C(F)(F)F)n2)cc(-c2cnc([C@]3(O)CC[C@@H](C(=O)NCc4ccncc4)CC3)s2)c1 [Example 191-53] | < 100 nM | –
Cc1cc(Nc2nccc(C(F)(F)F)n2)cc(-c2cnc([C@]3(O)CC[C@@H](C(=O)NCc4ccc(O)c(O)c4)CC3)s2)c1 [Example 119-86] | < 100 nM | –
Cc1cc(Nc2nccc(OCCO)n2)cc(-c2cnc(C3(O)CCC(C(N)=O)CC3)s2)c1 (stereo not shown) [Example 119-14] | < 100 nM | –
Cc1cc(Nc2nccc(C(F)(F)F)n2)cc(-c2cnc([C@]3(O)CC[C@@H](C(=O)NCc4ccc5c(c4)NC(=O)CC5)CC3)s2)c1 [Example 119-103] | < 100 nM | –
Cc1cc(Nc2nccc(C(F)(F)F)n2)cc(-c2cnc(C3(O)CCC(C(=O)N4CCC(C#N)CC4)CC3)s2)c1 (stereo not shown) [Example 119-59] | < 100 nM | –
Cc1cc(Nc2nccc(C(F)(F)F)n2)cc(-c2cnc(C3(O)CCC(C(=O)NCc4cocn4)CC3)s2)c1 (stereo not shown) [Example 119-42] | < 100 nM | –
Cc1cc(Nc2nccc(C(C)C)n2)cc(-c2cnc(C3(O)CCC(C(N)=O)C(C)(C)C3)s2)c1 (stereo not shown) [Example 119-119] | < 100 nM | –
Cc1cc(Nc2nccc(C(F)(F)F)n2)cc(-c2cnc([C@]3(O)CC[C@@H](C(=O)NCCCc4ccccc4)CC3)s2)c1 [Example 119-83] | < 100 nM | –
Cc1cc(Nc2nccc(C(F)(F)F)n2)cc(-c2cnc([C@]3(O)CC[C@@H](C(=O)NCc4ccc5c(c4)CNC5=O)CC3)s2)c1 [Example 119-99] | < 100 nM | –
Cc1cc(Nc2nccc(C)n2)cc(-c2cnc(C3(O)CCC(C(N)=O)C(C)C3)s2)c1 (single isomer, unassigned) [Example 119-5] | < 100 nM | –
Cc1cc(Nc2nccc(C(F)(F)F)n2)cc(-c2cnc([C@]3(O)CC[C@@H](C(=O)N4CCC(O)CC4)CC3)s2)c1 [Example 119-47] | < 100 nM | –
Cc1cc(Nc2nccc(C(F)(F)F)n2)cc(-c2cnc([C@]3(O)CC[C@@H](C(=O)N4CCN(C)CC4)CC3)s2)c1 [Example 119-46] | < 100 nM | –
Cc1cc(Nc2nccc(C(C)C)n2)cc(-c2cnc(C3(O)CCC(C(=O)NCc4cccnc4)C(C)C3)s2)c1 (stereo not shown) [Example 119-115] | < 100 nM | –
CC(=O)NCCNC(=O)[C@H]1CC[C@](O)(c2ncc(-c3cc(C)cc(Nc4nccc(C(F)(F)F)n4)c3)s2)CC1 [Example 119-49] | < 100 nM | –
CCN(CCC#N)C(=O)C1CCC(O)(c2ncc(-c3cc(C)cc(Nc4nccc(C(F)(F)F)n4)c3)s2)CC1 (stereo not shown) [Example 119-40] | < 100 nM | –
Cc1cc(Nc2nccc(C(F)(F)F)n2)cc(-c2cnc(C3(O)CCCC(C(=O)O)C(C)(C)C3)s2)c1 (stereo not shown) [Example 33B-12] | – | IC50 ([2]; read-out: rhSYK Activity, Table 33B): < 100 nM
Cc1cc(Nc2nccc(C(F)(F)F)n2)cc(-c2cnc(C(=O)NCC(O)CO)s2)c1 (stereo not shown) [Example 87A-3] | – | IC50 ([2]; read-out: rhSYK Activity (IC50), recombinant human GST-SYK 5 pM, ATP 25 μM, biotinylated substrate peptide 250 nM, HTRF, 10-dose titration): < 100 nM
